Measured values published in patent US9145351B2, “Azole derivatives, methods for producing the same, intermediate thereof, agro-horticultural agents” (KUREHA CORPORATION, priority 2009, dated 2015).

Assays:
Assay type in all cases: cell-based
Fusarium oxysporum = test: Plate medium fungicidal assay, cucumber fusarium wilt F.c (Experimental Example 5)
Summary of the method: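 Compound in DMSO mixed into PDA agar to give plates at 50 mg/L and 5 mg/L, then inoculated with 4 mm mycelial plug. Colony diameter compared with untreated plate as % mycelial growth inhibition, R=100(dc−dt)/dc, then scored on a 5-grade scale.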

Fusarium graminearum = test: microbe, parasite or virus in culture
Sclerotinia sclerotiorum = test: Plate medium fungicidal assay, Sclerotinia rot S.s (Experimental Example 5)
Summary of the method: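 A 4 mm mycelial plug was placed on PDA plates containing compound at 50 mg/L and 5 mg/L, added from DMSO solution. Colony diameters were compared with untreated plates, % mycelial growth inhibition was R=100(dc−dt)/dc, and scores fell into 5 grades.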

Ustilago nuda = test: Plate medium fungicidal assay, barley loose smut U.n (Experimental Example 5)
Summary of the method: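 Compounds in DMSO were mixed into molten PDA to give plates at 50 mg/L and 5 mg/L, then inoculated with a 4 mm mycelial plug. Colony diameter was compared with untreated plates as % inhibition = 100(dc−dt)/dc, scored on a 5-grade scale.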

Phaeosphaeria nodorum = test: Plate medium fungicidal assay, wheat Septoria nodorum blotch P.n (Experimental Example 5)
Summary of the method: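 Compound in DMSO mixed into PDA plate medium at 50 mg/L and 5 mg/L; 4 mm mycelial plug of pre-cultured fungus inoculated onto plate. Colony diameter compared with untreated plate, % mycelial growth inhibition = 100(dc−dt)/dc, scored in 5 grades.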

[1] = tested on: Pseudocercoporella herpotrichoides; test: Plate medium fungicidal assay, wheat eye spot P.h (Experimental Example 5)
Summary of the method: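 Compound in DMSO mixed into PDA agar for plates at 50 mg/L and 5 mg/L, inoculated with a 4 mm mycelial plug of Pseudocercosporella herpotrichoides. Colony diameter compared with untreated plates: % mycelial growth inhibition = 100(dc−dt)/dc, scored on a 5-grade scale.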

Pyricularia oryzae = test: microbe, parasite or virus in culture
[2] = plate medium containing compound at 5 mg/L
[3] = plate medium containing compound at 50 mg/L

SMILES | Growth inhibition grade, F.c (Fusarium oxysporum; [2]) | Growth inhibition grade, F.c (Fusarium oxysporum; [3]) | Growth inhibition grade, F.g (Fusarium graminearum; [2]) | Growth inhibition grade, F.g (Fusarium graminearum; [3]) | Growth inhibition grade, S.s (Sclerotinia sclerotiorum; [2]) | Growth inhibition grade, S.s (Sclerotinia sclerotiorum; [3]) | Growth inhibition grade, U.n (Ustilago nuda; [2]) | Growth inhibition grade, U.n (Ustilago nuda; [3]) | Growth inhibition grade, P.n (Phaeosphaeria nodorum; [2]) | Growth inhibition grade, P.n (Phaeosphaeria nodorum; [3]) | Growth inhibition grade, P.h [1, 2] | Growth inhibition grade, P.h [1, 3] | Growth inhibition grade, P.o (Pyricularia oryzae; [2]) | Growth inhibition grade, P.o (Pyricularia oryzae; [3]) | Growth inhibition grade, F.c (Fusarium oxysporum; plate medium, 5 mg/L) | Growth inhibition grade, F.c (Fusarium oxysporum; plate medium, 50 mg/L) | Growth inhibition grade, F.g (Fusarium graminearum; plate medium, 5 mg/L) | Growth inhibition grade, F.g (Fusarium graminearum; plate medium, 50 mg/L) | Growth inhibition grade, S.s (Sclerotinia sclerotiorum; plate medium, 5 mg/L) | Growth inhibition grade, S.s (Sclerotinia sclerotiorum; plate medium, 50 mg/L) | other results
C[C@]1(CCl)CC[C@@H](Cc2ccc(-c3ccccc3)cc2)[C@]1(O)Cn1cncn1 (relative stereo) [Compound I-82] | 5 (% Mycerial growth inhibition of 80% or higher) | 5 (% Mycerial growth inhibition of 80% or higher) | 5 (% Mycerial growth inhibition of 80% or higher) | 5 (% Mycerial growth inhibition of 80% or higher) | 5 (% Mycerial growth inhibition of 80% or higher) | 5 (% Mycerial growth inhibition of 80% or higher) | 5 (% Mycerial growth inhibition of 80% or higher) | 5 (% Mycerial growth inhibition of 80% or higher) | 5 (% Mycerial growth inhibition of 80% or higher) | 5 (% Mycerial growth inhibition of 80% or higher) | 5 (% Mycerial growth inhibition of 80% or higher) | 5 (% Mycerial growth inhibition of 80% or higher) | 5 (% Mycerial growth inhibition of 80% or higher) | 5 (% Mycerial growth inhibition of 80% or higher) | – | – | – | – | – | – | –
C[C@]1(CCl)CC[C@@H](Cc2ccccc2F)[C@]1(O)Cn1cncn1 (relative stereo) [Compound I-86] | 5 (% Mycerial growth inhibition of 80% or higher) | 5 (% Mycerial growth inhibition of 80% or higher) | 5 (% Mycerial growth inhibition of 80% or higher) | 5 (% Mycerial growth inhibition of 80% or higher) | 5 (% Mycerial growth inhibition of 80% or higher) | 5 (% Mycerial growth inhibition of 80% or higher) | 5 (% Mycerial growth inhibition of 80% or higher) | 5 (% Mycerial growth inhibition of 80% or higher) | 5 (% Mycerial growth inhibition of 80% or higher) | 5 (% Mycerial growth inhibition of 80% or higher) | 5 (% Mycerial growth inhibition of 80% or higher) | 5 (% Mycerial growth inhibition of 80% or higher) | 5 (% Mycerial growth inhibition of 80% or higher) | 5 (% Mycerial growth inhibition of 80% or higher) | – | – | – | – | – | – | –
C[C@]1(CCl)CC[C@@H](Cc2ccc(F)cc2F)[C@]1(O)Cn1cncn1 (relative stereo) [Compound I-88] | 5 (% Mycerial growth inhibition of 80% or higher) | 5 (% Mycerial growth inhibition of 80% or higher) | 5 (% Mycerial growth inhibition of 80% or higher) | 5 (% Mycerial growth inhibition of 80% or higher) | 5 (% Mycerial growth inhibition of 80% or higher) | 5 (% Mycerial growth inhibition of 80% or higher) | 5 (% Mycerial growth inhibition of 80% or higher) | 5 (% Mycerial growth inhibition of 80% or higher) | 5 (% Mycerial growth inhibition of 80% or higher) | 5 (% Mycerial growth inhibition of 80% or higher) | 5 (% Mycerial growth inhibition of 80% or higher) | 5 (% Mycerial growth inhibition of 80% or higher) | 5 (% Mycerial growth inhibition of 80% or higher) | 5 (% Mycerial growth inhibition of 80% or higher) | – | – | – | – | – | – | –
CC[C@]1(CCl)CC[C@@H](Cc2ccccc2)[C@]1(O)Cn1cncn1 (relative stereo) [Compound I-97] | 5 (% Mycerial growth inhibition of 80% or higher) | 5 (% Mycerial growth inhibition of 80% or higher) | 5 (% Mycerial growth inhibition of 80% or higher) | 5 (% Mycerial growth inhibition of 80% or higher) | 5 (% Mycerial growth inhibition of 80% or higher) | 5 (% Mycerial growth inhibition of 80% or higher) | 5 (% Mycerial growth inhibition of 80% or higher) | 5 (% Mycerial growth inhibition of 80% or higher) | 5 (% Mycerial growth inhibition of 80% or higher) | 5 (% Mycerial growth inhibition of 80% or higher) | 5 (% Mycerial growth inhibition of 80% or higher) | 5 (% Mycerial growth inhibition of 80% or higher) | 5 (% Mycerial growth inhibition of 80% or higher) | 5 (% Mycerial growth inhibition of 80% or higher) | – | – | – | – | – | – | –
C[C@@]1(CCl)CC[C@@H](Cc2cccc(Cl)c2)[C@]1(O)Cn1cncn1 (relative stereo) [Compound I-174] | – | – | – | – | – | – | – | – | – | – | – | – | – | – | 5 (% Mycerial growth inhibition of 80% or higher) | 5 (% Mycerial growth inhibition of 80% or higher) | 5 (% Mycerial growth inhibition of 80% or higher) | 5 (% Mycerial growth inhibition of 80% or higher) | 5 (% Mycerial growth inhibition of 80% or higher) | 5 (% Mycerial growth inhibition of 80% or higher) | Growth inhibition grade, U.n (Ustilago nuda; plate medium, 5 mg/L): 4 (% Mycerial growth inhibition of less than 80 to 60% or higher); Growth inhibition grade, U.n (Ustilago nuda; plate medium, 50 mg/L): 5 (% Mycerial growth inhibition of 80% or higher); Growth inhibition grade, P.n (Phaeosphaeria nodorum; plate medium, 5 mg/L): 5 (% Mycerial growth inhibition of 80% or higher); Growth inhibition grade, P.n (Phaeosphaeria nodorum; plate medium, 50 mg/L): 5 (% Mycerial growth inhibition of 80% or higher); Growth inhibition grade, P.h ([1]; plate medium, 5 mg/L): 5 (% Mycerial growth inhibition of 80% or higher); Growth inhibition grade, P.h ([1]; plate medium, 50 mg/L): 5 (% Mycerial growth inhibition of 80% or higher); Growth inhibition grade, P.o (Pyricularia oryzae; plate medium, 5 mg/L): 5 (% Mycerial growth inhibition of 80% or higher); Growth inhibition grade, P.o (Pyricularia oryzae; plate medium, 50 mg/L): 5 (% Mycerial growth inhibition of 80% or higher)
O[C@]1(Cn2cncn2)[C@H](Cc2ccc(Cl)cc2)CCC1(CCl)CCl (relative stereo) [Compound I-203, cis-5-(4-chlorobenzyl)-2,2-bis(chloromethyl)-1-(1H-1,2,4-triazol-1-yl)methylcyclopentanol] | – | – | – | – | – | – | – | – | – | – | – | – | – | – | 5 (% Mycerial growth inhibition of 80% or higher) | 5 (% Mycerial growth inhibition of 80% or higher) | 5 (% Mycerial growth inhibition of 80% or higher) | 5 (% Mycerial growth inhibition of 80% or higher) | 5 (% Mycerial growth inhibition of 80% or higher) | 5 (% Mycerial growth inhibition of 80% or higher) | Growth inhibition grade, U.n (Ustilago nuda; plate medium, 5 mg/L): 5 (% Mycerial growth inhibition of 80% or higher); Growth inhibition grade, U.n (Ustilago nuda; plate medium, 50 mg/L): 5 (% Mycerial growth inhibition of 80% or higher); Growth inhibition grade, P.n (Phaeosphaeria nodorum; plate medium, 5 mg/L): 5 (% Mycerial growth inhibition of 80% or higher); Growth inhibition grade, P.n (Phaeosphaeria nodorum; plate medium, 50 mg/L): 5 (% Mycerial growth inhibition of 80% or higher); Growth inhibition grade, P.h ([1]; plate medium, 5 mg/L): 5 (% Mycerial growth inhibition of 80% or higher); Growth inhibition grade, P.h ([1]; plate medium, 50 mg/L): 5 (% Mycerial growth inhibition of 80% or higher); Growth inhibition grade, P.o (Pyricularia oryzae; plate medium, 5 mg/L): 5 (% Mycerial growth inhibition of 80% or higher); Growth inhibition grade, P.o (Pyricularia oryzae; plate medium, 50 mg/L): 5 (% Mycerial growth inhibition of 80% or higher)
